Experiments:
Test in all cases: combination Emax (second highest fraction inhibited in the dose matrix, 72 h); higher = more inhibition; extreme values may be limits of the assay
[1] = system: JHH-6 (Hepatocellular Carcinoma)
Summary of the method: (§1)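 Cell lines in DMEM/F12 or RPMI with 10% FBS were plated in 1536-well plates, held 24 hours at 37°C, 5% CO2, then given two-drug dose matrices for 72 hours (DMSO typically 0.2%). Viability was read by CellTiter-Glo 2.0 luminescence and scaled as inhibition from 0 (vehicle wells) to 1 (blank wells). Combination Emax is the second-highest inhibition in the matrix; Bliss excess is observed combination effect minus expected EA + EB − EA·EB, EA and EB being single-agent effects.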

[2] = system: YT (Other Blood Carcinomas)
Summary of the method: as §1

[3] = system: HCC1143 (Breast Carcinoma)
Summary of the method: as §1

[4] = system: MES-SA (Other Solid Carcinomas)
Summary of the method: as §1

HuO9 (Osteosarcoma) = system: HuO9 (Osteosarcoma)
Summary of the method: as §1

[5] = system: HCC-827 (Lung Adenocarcinoma)
Summary of the method: as §1

[6] = system: MEG-01 (Chronic Myelogenous Leukemia)
Summary of the method: as §1

[7] = system: SK-LMS-1 (Other Solid Carcinomas)
Summary of the method: as §1

[8] = system: TYK-nu (Ovarian Carcinoma)
Summary of the method: as §1

MCF7 (Breast Carcinoma) = system: MCF7 (Breast Carcinoma)
Summary of the method: as §1

[9] = system: SNG-M (Endometrial Carcinoma)
Summary of the method: as §1

[10] = system: GDM-1 (Acute Myeloid Leukemia)
Summary of the method: as §1

Saos-2 (Osteosarcoma) = system: Saos-2 (Osteosarcoma)
Summary of the method: as §1

[11] = system: SKN-3 (Head and Neck Carcinoma)
Summary of the method: as §1

CS1 (Chondrosarcoma) = system: CS1 (Chondrosarcoma)
Summary of the method: as §1

A172 (Glioblastoma) = system: A172 (Glioblastoma)
Summary of the method: as §1

[12] = system: KG-1 (Acute Myeloid Leukemia)
Summary of the method: as §1

[13] = system: SNU-61 (Colorectal Carcinoma)
Summary of the method: as §1

[14] = system: SW48 (Colorectal Carcinoma)
Summary of the method: as §1

Compound | combination Emax [1] | combination Emax [2] | combination Emax [3] | combination Emax [4] | combination Emax (HuO9 (Osteosarcoma)) | combination Emax [5] | combination Emax [6] | combination Emax [7] | combination Emax [8] | combination Emax (MCF7 (Breast Carcinoma)) | combination Emax [9] | combination Emax [10] | combination Emax (Saos-2 (Osteosarcoma)) | combination Emax [11] | combination Emax (CS1 (Chondrosarcoma)) | combination Emax (A172 (Glioblastoma)) | combination Emax [12] | combination Emax [13] | combination Emax [14]
CN(C)CCCOc1ccc(-c2ccc3ncc4c(c3c2)n(C2CCOCC2)c(=O)n4C)cn1 [AZD0156] + O=C(c1cc(Cc2n[nH]c(=O)c3ccccc23)ccc1F)N1CCN(C(=O)C2CC2)CC1 [Olaparib] (first compound max 3 µM, partner max 3 µM) | 0.141 | 0.212 | 0.203 | 0.353 | 0.49 | 0.325 | 0.156 | 0.392 | 0.354 | 0.324 | 0.0957 | 0.533 | 0.218 | 0.283 | 0.296 | 0.323 | 0.336 |  | 
C=CCn1c(=O)c2cnc(Nc3ccc(N4CCN(C)CC4)cc3)nc2n1-c1cccc(C(C)(C)O)n1 [AZD1775] + C1CN(CCC1(C(=O)N[C@@H](CCO)C2=CC=C(C=C2)Cl)N)C3=NC=NC4=C3C=CN4 [Capivasertib] (first compound max 3 µM, partner max 3 µM) | 0.508 | 0.949 | 0.771 | 0.863 | 0.902 | 0.655 | 0.965 | 0.635 | 0.695 | 0.706 | 0.83 | 0.824 | 0.757 | 0.61 | 0.63 | 0.623 | 0.852 |  | 
COc1nnc2ccc(N3CCC(c4ccc(OCCN5CCN(C)C(=O)[C@H]5C)cc4)CC3)nn12 [AZD5153] + C=CCn1c(=O)c2cnc(Nc3ccc(N4CCN(C)CC4)cc3)nc2n1-c1cccc(C(C)(C)O)n1 [AZD1775] (first compound max 1 µM, partner max 1 µM) | 0.53 | 0.917 | 0.677 | 0.685 | 0.919 | 0.583 | 0.945 | 0.592 | 0.772 | 0.684 | 0.642 | 0.961 | 0.854 | 0.634 | 0.553 | 0.543 | 0.861 | 0.601 | 0.66
COc1nnc2ccc(N3CCC(c4ccc(OCCN5CCN(C)C(=O)[C@H]5C)cc4)CC3)nn12 [AZD5153] + CC1(C)CCC(CN2CCN(c3ccc(C(=O)NS(=O)(=O)c4ccc(NCC5CCOCC5)c([N+](=O)[O-])c4)c(Oc4cnc5[nH]ccc5c4)c3)CC2)=C(c2ccc(Cl)cc2)C1 [Venetoclax] (first compound max 1 µM, 7x7, partner max 1 µM) | 0.463 | 0.714 | 0.357 | 0.386 | 0.796 | 0.348 | 0.889 | 0.507 | 0.571 | 0.669 | 0.548 | 1 | 0.535 | 0.467 | 0.408 | 0.479 | 1 | 0.389 | 0.631
COc1nnc2ccc(N3CCC(c4ccc(OCCN5CCN(C)C(=O)[C@H]5C)cc4)CC3)nn12 [AZD5153] + CCN(CCO)CCCOc1ccc2c(Nc3cc(CC(=O)Nc4cccc(F)c4)[nH]n3)ncnc2c1 [AZD2811] (first compound max 1 µM, 7x7, partner max 1 µM) | 0.552 | 0.666 | 0.431 | 0.587 | 0.673 | 0.43 | 0.895 | 0.548 | 0.657 | 0.653 | 0.502 | 0.952 | 0.601 | 0.462 | 0.46 | 0.574 | 0.789 | 0.429 | 0.912
COc1nnc2ccc(N3CCC(c4ccc(OCCN5CCN(C)C(=O)[C@H]5C)cc4)CC3)nn12 [AZD5153] + C[C@@H]1COCCN1C2=NC(=NC(=C2)C3(CC3)[S@](=N)(=O)C)C4=C5C=CNC5=NC=C4 [AZD6738] (first compound max 1 µM, 7x7, partner max 10 µM) | 0.705 | 0.923 | 0.824 | 0.763 | 0.938 | 0.578 | 0.966 | 0.61 | 0.803 | 0.747 | 0.901 | 0.943 | 0.843 | 0.634 | 0.661 | 0.739 | 0.905 | 0.544 | 0.752
COc1nnc2ccc(N3CCC(c4ccc(OCCN5CCN(C)C(=O)[C@H]5C)cc4)CC3)nn12 [AZD5153] + Cc1c2c(nn1C)CSCc1cc(n(C)n1)CSc1cc(c3ccccc3c1)OCCCc1c(C(=O)O)n(C)c3c-2c(Cl)ccc13 [AZD5991] (first compound max 1 µM, 7x7, partner max 1 µM) | 0.436 | 1 | 0.565 | 0.593 | 0.996 | 0.366 | 0.961 | 0.5 | 0.646 | 0.769 | 0.639 | 1 | 0.835 | 0.6 | 0.38 | 0.485 | 1 | 0.452 | 0.711
COc1nnc2ccc(N3CCC(c4ccc(OCCN5CCN(C)C(=O)[C@H]5C)cc4)CC3)nn12 [AZD5153] + Cn1cnc2c(F)c(Nc3ccc(Br)cc3Cl)c(C(=O)NOCCO)cc21 [Selumetinib] (first compound max 1 µM, 7x7, partner max 10 µM) | 0.507 | 0.693 | 0.513 | 0.478 | 0.706 | 0.375 | 0.988 | 0.666 | 0.755 | 0.704 | 0.632 | 0.823 | 0.516 | 0.531 | 0.469 | 0.511 | 0.817 | 0.69 | 0.786
NC1(C(=O)N[C@@H](CCO)c2ccc(Cl)cc2)CCN(c2ncnc3[nH]ccc23)CC1 [Capivasertib] + CC(=O)c1c(C)c2cnc(Nc3ccc(N4CCNCC4)cn3)nc2n(C2CCCC2)c1=O [Palbociclib] (first compound max 10 µM, 7x7, partner max 10 µM) | 0.501 | 0.68 | 0.498 | 0.607 | 0.541 | 0.344 | 0.468 | 0.433 | 0.505 | 0.676 | 0.501 | 0.623 | 0.407 | 0.474 | 0.442 | 0.671 | 0.398 | 0.168 | 0.63
NC1(C(=O)N[C@@H](CCO)c2ccc(Cl)cc2)CCN(c2ncnc3[nH]ccc23)CC1 [Capivasertib] + CC(C)n1c(=O)n(C)c2cnc3cc(F)c(-c4ccc(OCCCN5CCCCC5)nc4)cc3c21 [AZD1390] (first compound max 10 µM, 7x7, partner max 0.3 µM) | 0.309 | 0.336 | 0.174 | 0.469 | 0.509 | 0.322 | 0.256 | 0.324 | 0.309 | 0.459 | 0.29 | 0.401 | 0.473 | 0.2 | 0.298 | 0.226 | 0.241 | 0.146 | 0.497
NC1(C(=O)N[C@@H](CCO)c2ccc(Cl)cc2)CCN(c2ncnc3[nH]ccc23)CC1 [Capivasertib] + CCN(CCO)CCCOc1ccc2c(Nc3cc(CC(=O)Nc4cccc(F)c4)[nH]n3)ncnc2c1 [AZD2811] (first compound max 10 µM, 7x7, partner max 1 µM) | 0.4 | 0.456 | 0.287 | 0.756 | 0.464 | 0.35 | 0.638 | 0.457 | 0.357 | 0.639 | 0.363 | 0.837 | 0.586 | 0.23 | 0.417 | 0.52 | 0.458 | 0.242 | 0.983
CS(=O)(=O)CCNCc1ccc(-c2ccc3ncnc(Nc4ccc(OCc5cccc(F)c5)c(Cl)c4)c3c2)o1 [Lapatinib] + Cn1cnc2c(F)c(Nc3ccc(Br)cc3Cl)c(C(=O)NOCCO)cc21 [Selumetinib] (first compound max 10 µM, 7x7, partner max 10 µM) |  | 0.725 |  |  |  |  | 0.644 | 0.402 |  |  | 0.43 |  | 0.289 |  | 0.554 |  |  |  | 0.802
CS(=O)(=O)CCNCc1ccc(-c2ccc3ncnc(Nc4ccc(OCc5cccc(F)c5)c(Cl)c4)c3c2)o1 [Lapatinib] + NC1(c2ccc(-c3nc4ccn5c(=O)[nH]nc5c4cc3-c3ccccc3)cc2)CCC1 [MK-2206] (first compound max 10 µM, 7x7, partner max 10 µM) |  | 0.945 | 0.89 |  | 0.995 |  | 0.904 | 0.927 | 0.894 | 0.953 | 0.667 |  | 0.426 | 0.835 | 0.765 |  |  |  | 0.847
Cc1nc(-c2cn3c(n2)-c2ccc(-c4cnn(C(C)(C)C(N)=O)c4)cc2OCC3)n(C(C)C)n1 [Taselisib] + O=C(Nc1ccc2[nH]nc(-c3ccncc3)c2c1)[C@@H]1CCN(CC(=O)N2CCN(c3ccc(-c4ncccn4)cc3)CC2)C1 [SCH772984] (first compound max 10 µM, 7x7, partner max 5 µM) |  | 0.597 |  |  |  |  | 0.954 | 0.924 |  |  | 0.76 |  | 0.703 |  | 0.744 |  |  |  | 0.942

Source: the supplement of paper PMC11061612
